# Assay results published in publication PMC10343475, “Systematic Modification of the Substitution Pattern of the 7-Hydroxy-5-oxopyrazolo[4,3-b]pyridine-6-carboxamide Scaffold Enabled the Discovery of New Ligands with High Affinity and Selectivity for the Cannabinoid Type 2 Receptor” (Molecules, 2023).
# Values joined by “and” are separate entries in the source; they are usually repeats but may differ in a detail not shown here. Identical values can stand only once. Like-named read-outs stand apart in the source and are kept apart here.
# Assays:
# [1] = Dissolution of 63-salts in 0.9% NaCl solution (LC-MS/MS); assay type: physicochemical
# Source text: [63^−] = 9.81 × 10^−7 mol^2/L^2. […] However, starting from the cesium salt, the concentration of drug dissolved in the physiological solution maintained high values for at least one hour (around 50 × 10^−6 mol/L, with a peak higher than 100 × 10^−6 mol/L) and, for a further two hours, these values were higher than those obtained with the sodium salt. From this, it can be deduced that the 63-cesium salt would be very suitable for the extemporaneous preparation of injectable solutions in the presence of high concentrations of sodium ions.
# An excess amount (~4 to 5 mg) of each salt of compound 63 was added to 5 mL of a 0.9% NaCl solution, kept under constant agitation, and thermostated at room temperature (21 ± 2 °C). At fixed time points, an aliquot was withdrawn from the solution, and centrifuged (3000 g, 10 min, RT) to separate undissolved compound and the supernatant, after dilution with MeOH, was analyzed by LC-MS/MS. An Accela UHPLC system coupled with a TSQ Quantum Access Max triple quad mass spectrometer (Thermo Fisher, Waltham, MA, USA), was employed to quantify dissolved 63 over time. UHPLC separation occurred by gradient elution, employing a Synergy Fusion C18 80Å RP-column (2.0 × 100 mm, 4 µm; Phenomenex, Bologna, Italy). Mobile phases A and B were acetonitrile and water, both with 0.1% v/v formic acid added. The following elution conditions were employed: linear gradient from 60 to 95%A in 5 min; 95% A between 5 and 8 min, returning to 60% A in 0.5 min with 2.5 min reconditioning time. Total run time: 11 min. The flow rate was 0.35 mL/min and injection volume was 10 µL. Heated electrospray (H-ESI) ion source voltage was set at 4.0 KV; capillary temperature at 270 °C. Nitrogen served both as sheath and auxiliary gas at 35 psi and 15 psi, respectively. Argon at a pressure of 1.5 mtorr was employed as collision gas. H-ESI ion source operated in positive ion mode (ESI+) and acquisition occurred in multiple reaction monitoring (MRM). Tube lens voltages (TL) and collision energies (CE) for each parent-product ion transition were optimized by flow injection analysis of 5 µM solutions of each standard in MeOH. Compound 63: m/z = 399.2 [M+H]^+ → m/z = 135.1, 107.1, 93.1 (TL = 98 V; CE = 20, 33, 37 eV, respectively). Its 1-hydroxy derivative, compound 4-(1-butyl)-4,5-dihydro-7-hydroxy-N-(1-hydroxyadamantan-3-yl)-2-methyl-5-oxo-2H-pyrazolo[4,3-b]pyridine-6-carboxamide, was employed as Internal Standard: m/z = 415.2 [M+H]^+ → m/z = 266.1, 248.1 (TL = 99 V; CE = 14, 31 eV). Calibration curves were prepared in MeOH in the 1000–10 nM concentration range starting and coefficients of determination of regression models were >0.99. Xcalibur software version 2.2 (Thermo Fisher Scientific, Inc., Waltham, MA, USA) was employed for both data acquisition and processing. […]
# [2] = target: human recombinant CB1 receptor (Homo sapiens, UniProt P21554); assay: Competition binding assay, displacement of [3H]-CP-55,940, CB1R
# Sequence of human recombinant CB1 receptor (P21554 whole entry): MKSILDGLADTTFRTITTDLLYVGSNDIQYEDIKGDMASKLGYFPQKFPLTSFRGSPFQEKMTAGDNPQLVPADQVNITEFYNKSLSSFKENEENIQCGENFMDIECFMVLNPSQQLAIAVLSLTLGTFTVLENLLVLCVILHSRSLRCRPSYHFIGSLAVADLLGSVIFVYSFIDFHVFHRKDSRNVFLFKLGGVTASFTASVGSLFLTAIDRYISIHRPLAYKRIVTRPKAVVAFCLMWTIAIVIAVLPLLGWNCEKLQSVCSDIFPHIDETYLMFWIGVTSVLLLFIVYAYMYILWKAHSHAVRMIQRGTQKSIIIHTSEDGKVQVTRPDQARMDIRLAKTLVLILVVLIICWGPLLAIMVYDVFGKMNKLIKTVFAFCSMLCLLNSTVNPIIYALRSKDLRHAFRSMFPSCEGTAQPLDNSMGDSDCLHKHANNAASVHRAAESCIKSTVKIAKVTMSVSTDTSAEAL
# Description: (§1) Binding at equilibrium was performed as previously reported. […] All compounds were tested following the procedure described by the manufacturer (Perkin Elmer, Italy). […] Ki values were calculated by applying the Cheng–Prusoff equation to the IC50 values (obtained by GraphPad) for the displacement of the bound radioligand by increasing concentrations of the test compound.
# human CB2 receptor [3] = target: T1, human CB2 receptor (Homo sapiens, UniProt P34972); assay: Competition binding assay, displacement of [3H]-CP-55,940, CB2R; design: logKiCB2 (nM) Exp.: unit not given here
# T1 sequence (P34972 whole entry): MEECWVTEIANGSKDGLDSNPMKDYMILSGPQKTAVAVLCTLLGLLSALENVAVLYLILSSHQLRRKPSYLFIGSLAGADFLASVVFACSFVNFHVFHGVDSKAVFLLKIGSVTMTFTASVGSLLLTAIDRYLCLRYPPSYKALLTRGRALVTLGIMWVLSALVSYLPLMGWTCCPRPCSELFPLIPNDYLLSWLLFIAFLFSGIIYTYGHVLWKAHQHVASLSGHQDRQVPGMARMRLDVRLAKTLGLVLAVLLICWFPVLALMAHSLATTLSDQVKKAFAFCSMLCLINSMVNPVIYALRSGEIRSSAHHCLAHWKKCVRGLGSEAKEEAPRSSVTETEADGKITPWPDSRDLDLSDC
# Description: as §1
# human CB2 receptor [4] = target: T1, human CB2 receptor; assay: cAMP Hunter functional assay in NKH-477-stimulated CHO-K1 cells overexpressing CB2R; conditions: for Functional behavior at CB2R: agonist mode / antagonist mode with JWH-133 4 µM challenge
# [5] = membranes from HEK cells, [3H]CP-55,940, mean ± SD, at least three experiments in duplicate, read-out: CB1R Ki
# [6] = CB2R Ki, membranes from HEK cells, [3H]CP-55,940, mean ± SD, at least three experiments in duplicate
# [7] = logKiCB2 (nM) Exp., log of experimental Ki
# [8] = membranes from HEK cells, [3H]CP-55,940, mean ± SD, at least three experiments in duplicate, read-out: CB2R Ki
SMILES,"Ki [2, 5]","SI (selectivity index for CB2R, Ki(CB1R)/Ki(CB2R)) (human CB2 receptor [3])",Ki (human CB2 receptor [3]; [6]),Functional behavior at CB2R (human CB2 receptor [4]),melting point,Ki (human CB2 receptor [3]; [8]),logKiCB2 (nM) Exp. (human CB2 receptor [3]; log of experimental Ki),other results
"CCCCn1c(=O)c(C(=O)NC23CC4CC(CC(C4)C2)C3)c(O)c2nn(C)cc21.[Cs] [63-cesium salt, N-(Adamantan-1-yl)-4-(1-butyl)-7-hydroxy-2-methyl-5-oxo-4,5-dihydro-2H-pyrazolo[4,3-b]pyridine-6-carboxamide Cesium Salt]",–,–,–,–,–,–,–,Concentration of dissolved 63 maintained for at least one hour ([1]; 0.9% NaCl): around 50 × 10^−6 mol/L; Peak concentration of dissolved 63 ([1]; 0.9% NaCl): higher than 100 × 10^−6 mol/L; Time to decrease to the value consistent with the Ks of the sodium salt ([1]; 0.9% NaCl): 200 min
"CCCCn1c(=O)c(C(=O)NC23CC4CC(CC(C4)C2)C3)c(O)c2nn(C)cc21.[Na] [63-sodium salt, N-(Adamantan-1-yl)-4-(1-butyl)-7-hydroxy-2-methyl-5-oxo-4,5-dihydro-2H-pyrazolo[4,3-b]pyridine-6-carboxamide Sodium Salt]",–,–,–,–,–,–,–,"Concentration of dissolved 63, average over time points ([1]; excess salt in 0.9% NaCl, room temperature): 6.37 µM"
"CCCCn1c(=O)c(C(=O)NC2CCCCCCC2)c(O)c2nn(C)cc21 [Compound 15, 4-(1-Butyl)-N-cyclooctyl-7-hydroxy-2-methyl-5-oxo-4,5-dihydro-2H-pyrazolo[4,3-b]pyridine-6-carboxamide]",> 10 µM,>1107,< 20 nM and 9.03 nM,antagonist/inverse agonist behavior,–,–,–,Ki (human CB2 receptor [3]; [7]): 14.5 nM
"CCCCn1c(=O)c(C(=O)NC2CCCc3ccccc32)c(O)c2nn(C)cc21 (centres unmarked) [Compound 18, 4-(1-Butyl)-7-hydroxy-2-methyl-5-oxo-N-(1,2,3,4-tetrahydronaphthalen-1-yl)-4,5-dihydro-2H-pyrazolo[4,3-b]pyridine-6-carboxamide]",> 10 µM,>578,< 20 nM and 17.3 nM,antagonist/inverse agonist behavior,–,–,–,Ki (human CB2 receptor [3]; [7]): 24 nM
"Cn1cc2c(n1)c(O)c(C(=O)NC13CC4CC(CC(C4)C1)C3)c(=O)n2Cc1ccccc1 [Compound 26, N-(Adamantan-1-yl)-4-benzyl-7-hydroxy-2-methyl-5-oxo-4,5-dihydro-2H-pyrazolo[4,3-b]pyridine-6-carboxamide]",–,–,< 20 nM and 0.48 nM,antagonist/inverse agonist behavior,180 to 183 °C,–,–,–
"COc1ccc(Cn2c(=O)c(C(=O)NC34CC5CC(CC(C5)C3)C4)c(O)c3nn(C)cc32)c(OC)c1 [Compound 27, N-(Adamantan-1-yl)-4-(2,4-dimethoxybenzyl)-7-hydroxy-2-methyl-5-oxo-4,5-dihydro-2H-pyrazolo[4,3-b]pyridine-6-carboxamide]",> 10 µM,–,–,–,> 270 °C,> 10000 nM,–,CB2 receptor affinity in words (human CB2 receptor [3]): completely inactive
"CCn1cc2c(n1)c(O)c(C(=O)NC13CC4CC(CC(C4)C1)C3)c(=O)n2CC [Compound 33, N-(Adamantan-1-yl)-2,4-diethyl-7-hydroxy-5-oxo-4,5-dihydro-2H-pyrazolo[4,3-b]pyridine-6-carboxamide]",> 10 µM,>416,–,–,245 to 247 °C,24 ± 15.3 nM,1.38,–
"CCCCn1c(=O)c(C(=O)NC23CC4CC(CC(C4)C2)C3)c(O)c2nn(CC)cc21 [Compound 35, N-(Adamantan-1-yl)-4-(1-butyl)-2-ethyl-7-hydroxy-5-oxo-4,5-dihydro-2H-pyrazolo[4,3-b]pyridine-6-carboxamide]",0.102 ± 0.0152 µM,227,< 20 nM and 0.45 nM,antagonist/inverse agonist behavior,–,–,−0.35,–
"CCCCn1c(=O)c(C(=O)NC23CC4CC(CC(C4)C2)C3)c(O)c2c1c(C)nn2C [Compound 51, N-(Adamantan-1-yl)-4-(1-butyl)-7-hydroxy-1,3-dimethyl-5-oxo-4,5-dihydro-1H-pyrazolo[4,3-b]pyridine-6-carboxamide]",> 10 µM,>280,35.6 ± 19.5 nM,–,162 to 165 °C,–,1.55,–
"CCCCCn1c(=O)c(C(=O)NC23CC4CC(CC(C4)C2)C3)c(O)c2c1c(C)nn2C [Compound 52, N-(Adamantan-1-yl)-7-hydroxy-1,3-dimethyl-5-oxo-4-(1-pentyl)-4,5-dihydro-1H-pyrazolo[4,3-b]pyridine-6-carboxamide]",> 10 µM,>293,34.1 ± 4.88 nM,–,167 to 169 °C,–,1.53,–
"Cc1c2c(nn1C)c(O)c(C(=O)NC13CC4CC(CC(C4)C1)C3)c(=O)n2C(C)C [Compound 53, N-(Adamantan-1-yl)-7-hydroxy-4-isopropyl-2,3-dimethyl-5-oxo-4,5-dihydro-2H-pyrazolo[4,3-b]pyridine-6-carboxamide]",> 10 µM,–,–,–,> 260 °C,> 10000 nM,–,CB2 receptor affinity in words (human CB2 receptor [3]): inactive
"CCCCn1c(=O)c(C(=O)NC23CC4CC(CC(C4)C2)C3)c(O)c2nn(C)c(C)c21 [Compound 54, N-(Adamantan-1-yl)-4-(1-butyl)-7-hydroxy-2,3-dimethyl-5-oxo-4,5-dihydro-2H-pyrazolo[4,3-b]pyridine-6-carboxamide]",> 10 µM,–,< 20 nM and 2.16 nM,–,213 to 216 °C,–,0.33,CB1 receptor activity in words [2]: not active at all
"CCCCCn1c(=O)c(C(=O)NC23CC4CC(CC(C4)C2)C3)c(O)c2nn(C)c(C)c21 [Compound 55, N-(Adamantan-1-yl)-7-hydroxy-2,3-dimethyl-5-oxo-4-(1-pentyl)-4,5-dihydro-2H-pyrazolo[4,3-b]pyridine-6-carboxamide]",> 10 µM,–,< 20 nM and 2.11 nM,antagonist/inverse agonist behavior,67 °C,–,0.32,CB1 receptor activity in words [2]: not active at all
CC(C)n1c(=O)c(C(=O)NC23CC4CC(CC(C4)C2)C3)c(O)c2c1cnn2C [Compound 57],–,>184,54.3 ± 12.3 nM,typical agonist behavior,–,–,1.73,"Ki [2]: > 10 µM; EC50 (human CB2 receptor [4]): 1590 nM; Emax (human CB2 receptor [4]; agonist mode, 25 µM NKH477): 84.05"
C#CCn1ncc2c1c(O)c(C(=O)NC13CC4CC(CC(C4)C1)C3)c(=O)n2C(C)C [Compound 58],–,>162,61.8 ± 20.8 nM,–,–,–,1.79,Ki [2]: > 10 µM
C#CCn1cc2c(n1)c(O)c(C(=O)NC13CC4CC(CC(C4)C1)C3)c(=O)n2C(C)C [Compound 59],–,–,> 10000 nM,–,–,–,–,Ki [2]: > 10 µM; CB2 receptor affinity in words (human CB2 receptor [3]): inactive
CC(C)n1c(=O)c(C(=O)NC23CC4CC(CC(C4)C2)C3)c(O)c2c1cnn2CC#N [Compound 60],> 10 µM,>206,–,–,–,48.5 ± 10.9 nM,1.68,–
CC(C)n1c(=O)c(C(=O)NC23CC4CC(CC(C4)C2)C3)c(O)c2nn(CC(=O)OC(C)(C)C)cc21 [Compound 61],> 10 µM,–,–,–,–,> 10000 nM,–,CB2 receptor affinity in words (human CB2 receptor [3]): inactive
CC(C)n1c(=O)c(C(=O)NC23CC4CC(CC(C4)C2)C3)c(O)c2nn(Cc3ccc(F)cc3)cc21 [Compound 62],> 10 µM,–,–,–,–,> 10000 nM,–,CB2 receptor affinity in words (human CB2 receptor [3]): inactive
